Usually IC50 stands for the point on the concentration scale where inhibition reaches its midpoint.

From BindingDB's records for patent US12247004 (Oxford Drug Design, 2025) come the findings set out here.

Experiment [1] deals with Leucine--tRNA ligase (Escherichia coli (strain K12), UniProt P07813). The experiment is described as follows: Enzyme Inhibition Assay.
Procedure: (§1) Single Point Percentage InhibitionThe activity of the pathogenic aaRSs was monitored by measuring AMP production using the commercial kit AMP-Glo (Promega, Madison, USA).Ligand stock solutions were prepared in 100% DMSO at 10 mM concentration. An assay buffer consisting of 100 mM Tris HCl pH 7.6, 40 mM MgCl, 20 mM KCl and 150 mM NaCl was prepared in dH2O. […] A substrate solution was also prepared in assay buffer with 50 mM L-leucine, 10 mM ATP and 100 mg/mL tRNA.
The target of experiment [2] is Isoleucine--tRNA ligase (Escherichia coli (strain K12), UniProt P00956). Description: Enzyme Inhibition Assay.
Chain of Isoleucine--tRNA ligase (P00956 whole entry): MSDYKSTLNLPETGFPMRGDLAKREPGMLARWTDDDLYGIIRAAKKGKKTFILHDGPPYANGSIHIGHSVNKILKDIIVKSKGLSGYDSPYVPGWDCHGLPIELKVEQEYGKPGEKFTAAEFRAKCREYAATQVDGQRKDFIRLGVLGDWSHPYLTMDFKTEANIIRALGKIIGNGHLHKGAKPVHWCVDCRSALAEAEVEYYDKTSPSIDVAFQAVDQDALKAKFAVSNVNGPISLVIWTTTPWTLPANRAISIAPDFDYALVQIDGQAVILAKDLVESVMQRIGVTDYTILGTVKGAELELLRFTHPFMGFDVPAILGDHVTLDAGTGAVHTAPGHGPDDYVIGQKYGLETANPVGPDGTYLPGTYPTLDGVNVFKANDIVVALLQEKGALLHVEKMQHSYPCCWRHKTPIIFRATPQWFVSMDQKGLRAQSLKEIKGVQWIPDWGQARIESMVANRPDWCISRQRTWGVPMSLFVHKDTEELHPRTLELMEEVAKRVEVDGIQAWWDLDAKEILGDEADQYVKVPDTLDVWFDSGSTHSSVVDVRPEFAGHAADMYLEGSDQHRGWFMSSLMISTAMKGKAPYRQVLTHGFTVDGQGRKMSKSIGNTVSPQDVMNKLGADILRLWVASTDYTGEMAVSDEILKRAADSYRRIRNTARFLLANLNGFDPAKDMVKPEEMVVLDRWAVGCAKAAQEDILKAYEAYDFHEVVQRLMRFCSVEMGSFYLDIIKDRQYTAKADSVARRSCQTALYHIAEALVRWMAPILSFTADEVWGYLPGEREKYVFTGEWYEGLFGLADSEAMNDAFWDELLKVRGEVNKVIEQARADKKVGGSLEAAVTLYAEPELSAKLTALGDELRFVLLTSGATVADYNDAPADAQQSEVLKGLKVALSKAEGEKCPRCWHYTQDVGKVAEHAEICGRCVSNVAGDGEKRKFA
Procedure: as §1

Chain of Leucine--tRNA ligase (P07813 whole entry): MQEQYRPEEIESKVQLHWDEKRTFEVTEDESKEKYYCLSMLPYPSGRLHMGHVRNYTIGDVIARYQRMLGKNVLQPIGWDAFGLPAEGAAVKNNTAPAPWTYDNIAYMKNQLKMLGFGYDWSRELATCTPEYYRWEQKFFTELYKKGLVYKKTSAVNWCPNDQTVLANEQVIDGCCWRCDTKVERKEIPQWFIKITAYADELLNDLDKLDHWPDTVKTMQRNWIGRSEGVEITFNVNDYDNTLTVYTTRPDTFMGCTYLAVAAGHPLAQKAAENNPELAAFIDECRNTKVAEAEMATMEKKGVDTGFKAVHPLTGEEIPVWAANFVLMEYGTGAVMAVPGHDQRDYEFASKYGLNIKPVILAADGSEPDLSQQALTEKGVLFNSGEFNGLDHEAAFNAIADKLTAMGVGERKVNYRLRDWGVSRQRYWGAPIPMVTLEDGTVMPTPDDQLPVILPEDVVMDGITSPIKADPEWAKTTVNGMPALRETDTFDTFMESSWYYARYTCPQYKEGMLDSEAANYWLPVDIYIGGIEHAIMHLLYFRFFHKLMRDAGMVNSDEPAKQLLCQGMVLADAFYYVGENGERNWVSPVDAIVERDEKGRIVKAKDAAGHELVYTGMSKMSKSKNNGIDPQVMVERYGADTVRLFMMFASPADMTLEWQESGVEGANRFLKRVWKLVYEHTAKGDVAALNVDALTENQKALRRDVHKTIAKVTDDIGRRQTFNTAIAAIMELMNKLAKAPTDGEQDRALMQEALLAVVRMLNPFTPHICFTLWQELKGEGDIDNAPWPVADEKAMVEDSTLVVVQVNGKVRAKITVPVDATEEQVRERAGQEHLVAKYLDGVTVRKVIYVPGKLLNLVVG

Turning to `CC(C)C[C@H](N)C(=O)N=S(N)(=O)c1cc[nH]n1` (some centres not stated) [US12247004, Compound ANASIA-064], in experiment [1], the concentration for half-maximal inhibition (IC50) stood at 2170 nM.
On to `CC[C@H](C)[C@H](N)C(=O)N=S(N)(=O)c1ccc2ccccc2c1` (some centres not stated) [US12247004, Compound ANASIA-030], for which the IC50 in experiment [2] turned out to be 9.59 µM.
